# Experimental data taken from publication PMC7951137 (ACS chemical neuroscience, 2021).
# Read-outs that look alike come from different tables or passages of the source. [ ]: non-standard residue; d: D form.
# Experiments:
# [1] = target: D189S hMC4R (Homo sapiens, UniProt P32245, D189S); assay: cAMP AlphaScreen agonist / inverse agonist assay; assay type: cell-based; conditions: for Inverse agonist percent decrease from basal activity: D189S hMC4R
# [2] = target: T1, D189Q hMC4R (Homo sapiens, UniProt P32245, D189Q); assay: cAMP AlphaScreen agonist / inverse agonist assay; assay type: cell-based; conditions: for Inverse agonist percent decrease from basal activity: D189Q hMC4R
# [3] = target: D189E hMC4R (Homo sapiens, UniProt P32245, D189E); assay: cAMP AlphaScreen agonist / inverse agonist assay; assay type: cell-based; conditions: for Inverse agonist percent decrease from basal activity: D189E hMC4R
# [4] = target: T2, wildtype hMC4R (Homo sapiens, UniProt P32245); assay: cAMP AlphaScreen agonist / inverse agonist assay; assay type: cell-based; conditions: WT hMC4R; basal = signal at 10^−12 M
# [5] = target: D189N hMC4R (Homo sapiens, UniProt P32245, D189N); assay: cAMP AlphaScreen agonist / inverse agonist assay; assay type: cell-based; conditions: for Inverse agonist percent decrease from basal activity: D189N hMC4R
# [6] = target: T2, wildtype hMC4R; assay: cAMP AlphaScreen antagonist assay; assay type: cell-based
# [7] = tested on: mMC4R; conditions: cited from earlier work
# [8] = target: D189K hMC4R (Homo sapiens, UniProt P32245, D189K); assay: cAMP AlphaScreen antagonist assay; assay type: cell-based
# [9] = target: D189A hMC4R (Homo sapiens, UniProt P32245, D189A); assay: cAMP AlphaScreen antagonist assay; assay type: cell-based
# [10] = target: T1, D189Q hMC4R; assay: cAMP AlphaScreen antagonist assay; assay type: cell-based
# [11] = target: T3, human melanocortin-4 receptor (hMC4R), wild type, N-terminal FLAG-tagged (human, UniProt P32245 1-332); assay: radioligand binding
# [12] = target: T3, human melanocortin-4 receptor (hMC4R), …; assay: cell-based or functional assay
# [13] = target: T4, D189K mutant hMC4R, N-terminal FLAG-tagged (human, UniProt P32245 1-332, D189K); assay: radioligand binding
# [14] = target: T5, D189N mutant hMC4R, N-terminal FLAG-tagged (human, UniProt P32245 1-332, D189N); assay: radioligand binding
# [15] = target: T3, human melanocortin-4 receptor (hMC4R), …; assay: radioligand binding; remark: listed apart in the source
# [16] = target: T6, D189E mutant hMC4R, N-terminal FLAG-tagged (human, UniProt P32245 1-332, D189E); assay: radioligand binding
# [17] = target: T7, D189Q mutant hMC4R, N-terminal FLAG-tagged (human, UniProt P32245 1-332, D189Q); assay: radioligand binding
# [18] = target: T8, D189A mutant hMC4R, N-terminal FLAG-tagged (human, UniProt P32245 1-332, D189A); assay: radioligand binding
# [19] = target: T9, D189S mutant hMC4R, N-terminal FLAG-tagged (human, UniProt P32245 1-332, D189S); assay: radioligand binding
# [20] = target: T4, D189K mutant hMC4R, N-terminal …; assay: cell-based or functional assay
# [21] = target: T5, D189N mutant hMC4R, N-terminal …; assay: cell-based or functional assay
# [22] = target: T6, D189E mutant hMC4R, N-terminal …; assay: cell-based or functional assay
# [23] = target: T7, D189Q mutant hMC4R, N-terminal …; assay: cell-based or functional assay
# [24] = target: T8, D189A mutant hMC4R, N-terminal …; assay: cell-based or functional assay
# [25] = target: T9, D189S mutant hMC4R, N-terminal …; assay: cell-based or functional assay
# [26] = target: T3, human melanocortin-4 receptor (hMC4R), …; assay: radioligand binding; remark: listed apart in the source
# T2 sequence (P32245 whole entry): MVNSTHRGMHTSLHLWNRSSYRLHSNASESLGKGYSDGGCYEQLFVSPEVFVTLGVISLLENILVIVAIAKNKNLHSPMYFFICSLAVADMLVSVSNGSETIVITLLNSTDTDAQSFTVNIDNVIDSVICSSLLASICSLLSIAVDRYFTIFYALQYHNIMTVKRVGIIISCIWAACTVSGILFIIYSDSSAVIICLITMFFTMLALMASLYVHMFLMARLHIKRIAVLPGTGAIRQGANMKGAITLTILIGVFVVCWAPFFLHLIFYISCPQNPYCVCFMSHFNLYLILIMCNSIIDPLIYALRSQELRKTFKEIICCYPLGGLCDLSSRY
# T3 sequence (P32245 whole entry): as above
# D189N hMC4R, sequence (P32245 whole entry D189N): as the sequence (P32245 whole entry) above, with D189N counted along it
# D189E hMC4R, sequence (P32245 whole entry D189E): as the sequence (P32245 whole entry) above, with D189E counted along it
# T1 sequence (P32245 whole entry D189Q): as the sequence (P32245 whole entry) above, with D189Q counted along it
# D189A hMC4R, sequence (P32245 whole entry D189A): as the sequence (P32245 whole entry) above, with D189A counted along it
# D189S hMC4R, sequence (P32245 whole entry D189S): as the sequence (P32245 whole entry) above, with D189S counted along it
# D189K hMC4R, sequence (P32245 whole entry D189K): as the sequence (P32245 whole entry) above, with D189K counted along it
# T5 sequence (P32245 whole entry D189N): as the sequence (P32245 whole entry) above, with D189N counted along it
# T6 sequence (P32245 whole entry D189E): as the sequence (P32245 whole entry) above, with D189E counted along it
# T7 sequence (P32245 whole entry D189Q): as the sequence (P32245 whole entry) above, with D189Q counted along it
# T8 sequence (P32245 whole entry D189A): as the sequence (P32245 whole entry) above, with D189A counted along it
# T9 sequence (P32245 whole entry D189S): as the sequence (P32245 whole entry) above, with D189S counted along it
# T4 sequence (P32245 whole entry D189K): as the sequence (P32245 whole entry) above, with D189K counted along it
molecule,measurement,setting,value
"C[C@@H]1NC(=O)[C@H](CN)NC(=O)[C@H](Cc2ccccc2)NC(=O)[C@H](Cc2ccccc2)NC(=O)[C@H](CCCNC(=N)N)NC(=O)[C@@H]2CCCN2C(=O)[C@H]2CCCN2C(=O)[C@H](Cc2ccccc2)NC1=O [MDE3–119-8c, c[Pro-Arg-Phe-Phe-Dap-Ala-Phe-DPro]]",Inverse agonist percent decrease from basal activity,[1],−35%
same,Inverse agonist percent decrease from basal activity,[2],−45%
same,Inverse agonist percent decrease from basal activity,[3],−55%
same,Inverse agonist percent decrease from basal signal,[4],−50%
same,Inverse agonist percent decrease from basal activity,[5],−15%
"C[C@@H]1NC(=O)[C@@H](CN)NC(=O)[C@H](Cc2ccccc2)NC(=O)[C@H](Cc2ccccc2)NC(=O)[C@H](CCCNC(=N)N)NC(=O)[C@@H]2CCCN2C(=O)[C@H]2CCCN2C(=O)[C@H](Cc2ccccc2)NC1=O [MDE3–119-7c, c[Pro-Arg-Phe-Phe-DDap-Ala-Phe-DPro]]",Inverse agonist percent decrease from basal activity,[1],−30%
same,Inverse agonist percent decrease from basal activity,[2],−40%
same,Inverse agonist percent decrease from basal activity,[3],−35%
same,Inverse agonist percent decrease from basal signal,[4],−30%
same,Inverse agonist percent decrease from basal activity,[5],−15%
"CC[C@@H]1NC(=O)[C@H](Cc2ccccc2)NC(=O)[C@H](Cc2ccccc2)NC(=O)[C@H](CCCNC(=N)N)NC(=O)[C@@H]2CCCN2C(=O)[C@H]2CCCN2C(=O)[C@H](Cc2ccccc2)NC(=O)[C@H](C)NC1=O [MDE3–119-2c, c[Pro-Arg-Phe-Phe-Abu-Ala-Phe-DPro]]",Inverse agonist percent decrease from basal signal,[4],−15%
c[Pro-Arg-Phe-Phe-His-Ala-Phe-DPro] [MDE3–119-13c],Inverse agonist percent decrease from basal activity,[2],−30%
same,Inverse agonist percent decrease from basal activity,[3],−15%
same,Inverse agonist percent decrease from basal signal,[4],−30%
"C[C@@H]1NC(=O)[C@H](CC(N)=O)NC(=O)[C@H](Cc2ccccc2)NC(=O)[C@H](Cc2ccccc2)NC(=O)[C@H](CCCNC(=N)N)NC(=O)[C@@H]2CCCN2C(=O)[C@H]2CCCN2C(=O)[C@H](Cc2ccccc2)NC1=O [MDE5–108-10c, c[Pro-Arg-Phe-Phe-Asn-Ala-Phe-DPro]]",Inverse agonist percent decrease from basal activity,[1],−20%
same,Inverse agonist percent decrease from basal activity,[2],−45%
same,Inverse agonist percent decrease from basal activity,[3],−25%
same,Inverse agonist percent decrease from basal signal,[4],−30%
same,Inverse agonist percent decrease from basal activity,[5],−20%
c[Pro-Arg-Phe-Phe-Phe-Ala-Phe-DPro] [MDE3–119-14c],Decrease in antagonist potency relative to MDE3–119-8c,[6]; hMC4R,80 fold
same,Previously decreased antagonist potency (comparator not restated),[7],50–100 fold
"C[C@@H]1NC(=O)[C@H](CCC(=O)O)NC(=O)[C@H](Cc2ccccc2)NC(=O)[C@H](Cc2ccccc2)NC(=O)[C@H](CCCNC(=N)N)NC(=O)[C@@H]2CCCN2C(=O)[C@H]2CCCN2C(=O)[C@H](Cc2ccccc2)NC1=O [MDE3–119-5c, c[Pro-Arg-Phe-Phe-Glu-Ala-Phe-DPro]]",Kb,[8],> 3160 nM
same,Kb,[9],> 3160 nM
same,Kb,[6],100 nM
same,Kb,[10],2000 nM
same,EC50,[2],7000 nM
same,Inverse agonist percent decrease from basal activity,[2],−40%
same,EC50,[3],1100 nM
same,Inverse agonist percent decrease from basal activity,[3],−40%
same,Inverse agonist percent decrease from basal signal,[4],−35%
same,EC50,[5],3000 nM
same,Inverse agonist percent decrease from basal activity,[5],−5%
"C[C@@H]1NC(=O)[C@H](CO)NC(=O)[C@H](Cc2ccccc2)NC(=O)[C@H](Cc2ccccc2)NC(=O)[C@H](CCCNC(=N)N)NC(=O)[C@@H]2CCCN2C(=O)[C@H]2CCCN2C(=O)[C@H](Cc2ccccc2)NC1=O [MDE3–85c, c[Pro-Arg-Phe-Phe-Ser-Ala-Phe-DPro]]",Kb,[8],501 nM
same,Kb,[9],1000 nM
same,Kb,[6],10 nM
same,Kb,[10],158 nM
same,EC50,[1],600 ± 400 nM
same,Inverse agonist percent decrease from basal activity,[1],−25%
same,Inverse agonist percent decrease from basal activity,[2],−35%
same,EC50,[3],11 ± 4 nM
same,Inverse agonist percent decrease from basal activity,[3],−25%
same,Inverse agonist percent decrease from basal signal,[4],−25%
same,EC50,[5],100 ± 40 nM
same,Inverse agonist percent decrease from basal activity,[5],−20%
"C[C@@H]1NC(=O)[C@H](C)NC(=O)[C@H](Cc2ccccc2)NC(=O)[C@H](Cc2ccccc2)NC(=O)[C@H](CCCNC(=N)N)NC(=O)[C@@H]2CCCN2C(=O)[C@H]2CCCN2C(=O)[C@H](Cc2ccccc2)NC1=O [MDE3–154c, c[Pro-Arg-Phe-Phe-Ala-Ala-Phe-DPro]]",Kb,[8],794 nM
same,Kb,[9],2510 nM
same,Kb,[10],251 nM
same,Inverse agonist percent decrease from basal activity,[2],−25%
same,EC50,[3],16 ± 2 nM
same,Inverse agonist percent decrease from basal activity,[3],−25%
same,Inverse agonist percent decrease from basal signal,[4],−35%
"RCVRLHESCLGQQVPCCDPCATCYCRFFNAFCYCRKLGTAMNPCSRT (domain or fragment, UniProt O00253 86-132, looked up) [human agouti-related protein hAGRP(86–132)]",IC50,[11],12 nM
same,"pA2, antagonism of NDP-MSH (Schild analysis), cAMP AlphaScreen, HEK293 cells",[12],8.8
same,IC50,[13],150 nM
same,IC50,[14],10.5 nM
same,IC50,[15],12 nM
same,IC50,[16],6 nM
same,IC50,[17],10 nM
same,IC50,[18],> 1000 nM
same,IC50,[19],12.5 nM
same,"pA2, antagonism of NDP-MSH (Schild analysis), cAMP AlphaScreen, HEK293 cells",[20],7.2
same,"pA2, antagonism of NDP-MSH (Schild analysis), cAMP AlphaScreen, HEK293 cells",[21],8.4
same,"pA2, antagonism of NDP-MSH (Schild analysis), cAMP AlphaScreen, HEK293 cells",[22],8.8
same,"pA2, antagonism of NDP-MSH (Schild analysis), cAMP AlphaScreen, HEK293 cells",[23],8.1
same,"pA2, antagonism of NDP-MSH (Schild analysis), cAMP AlphaScreen, HEK293 cells",[24],6.9
same,"pA2, antagonism of NDP-MSH (Schild analysis), cAMP AlphaScreen, HEK293 cells",[25],8.2
cyclo(PRFFDAF[dP]) [MDE3–119-4c],IC50,[26],3600 nM
same,IC50,[11],1300 nM
cyclo(PRFFEAF[dP]) [MDE3–119-5c],IC50,[26],2500 nM
same,IC50,[11],1400 nM
